We go through 4 compounds from PMC9356065, “Novel psoralen derivatives as anti-breast cancer agents and their light-activated cytotoxicity against HER2 positive breast cancer cells” (Scientific Reports, 2022).

Each structure is given as a SMILES string.

The term IC50 denotes the midpoint of a concentration-inhibition curve. Low readings indicate higher potency, high ones lower potency. For orientation: melting point means the temperature, or range, at which the solid turns liquid.

In the first data set the test system is MDA-MB-231. Description: MTT cytotoxicity, 48 h, without UVA. The class given is cell-based. The following applies: Homo sapiens, MDA-MB-231, light or radiation study, I = %inhibition lower than 50%, read-out: Cytotoxic activity MDA-MB-231 %Inhibition. The method, then:
(§1) MDA-MB-231 (triple-negative breast cancer) was obtained from M.D. Anderson Cancer Center, Houston, TX, USA). T47-D (hormone-dependent breast carcinoma), SK-BR-3 (human HER2+ breast cancer), and MRC-5 (normal embryonic lung fibroblast) were obtained from the American Type Culture Collection (ATCC, Manassas, VA, USA).
(§2) The cytotoxic effect of tested compounds was evaluated in two breast cancer cell lines, MDA-MB-231 and T47-D. Number of survival cells after exposure to tested compounds for 48 h was determined by MTT assay, as previously described.
In the case of `COc1ccc(C(=O)Nc2c3ccoc3c(OC)c3oc(=O)ccc23)cc1` [3e, 4-Methoxy-N-(9-methoxy-7-oxo-7H-furo[3,2-g]chromen-4-yl)benzamide], the inhibition at 50 µg/mL was determined as 19%.
On the same count and under the same terms, the result for `COc1c2occc2c(NC(=O)c2cccs2)c2ccc(=O)oc12` [3h, N-(9-Methoxy-7-oxo-7H-furo[3,2-g]chromen-4-yl) thiophene-2-carboxamide] reads 8%.
As to `COc1c2occc2c(NC(=O)c2ccccc2)c2ccc(=O)oc12` [3a, N-(9-Methoxy-7-oxo-7H-furo[3,2-g]chromen-4-yl)benzamide], the inhibition at 50 µg/mL stood at 25%.
As to `COc1c2occc2c(NC(=O)c2ccc(F)cc2)c2ccc(=O)oc12` [3b, 4-Fluoro-N-(9-methoxy-7-oxo-7H-furo[3,2-g]chromen-4-yl)benzamide], the inhibition at 50 µg/mL came out at 34%.

The next data set has as its system T47-D. Description: MTT cytotoxicity, 48 h, without UVA. It counts as cell-based, human. Particulars: Homo sapiens, T47D, light or radiation study; 48 h; without UVA; I = %inhibition lower than 50%; read-out: Cytotoxic activity T47-D %Inhibition. How it is done:
Additionally, the cytotoxicity towards normal cells, human embryonal lung fibroblast cell MRC-5 was also assessed.
as §1, §2
For `COc1ccc(C(=O)Nc2c3ccoc3c(OC)c3oc(=O)ccc23)cc1` [3e, 4-Methoxy-N-(9-methoxy-7-oxo-7H-furo[3,2-g]chromen-4-yl)benzamide], the inhibition at 50 µg/mL stood at 38%.
On to `COc1c2occc2c(NC(=O)c2cccs2)c2ccc(=O)oc12` [3h, N-(9-Methoxy-7-oxo-7H-furo[3,2-g]chromen-4-yl) thiophene-2-carboxamide], for which the inhibition at 50 µg/mL was 25%.
Turning to `COc1c2occc2c(NC(=O)c2ccccc2)c2ccc(=O)oc12` [3a, N-(9-Methoxy-7-oxo-7H-furo[3,2-g]chromen-4-yl)benzamide], the inhibition at 50 µg/mL turned out to be 45%.
As for `COc1c2occc2c(NC(=O)c2ccc(F)cc2)c2ccc(=O)oc12` [3b, 4-Fluoro-N-(9-methoxy-7-oxo-7H-furo[3,2-g]chromen-4-yl)benzamide], the inhibition at 50 µg/mL came out at 49%.

In another data set the target is T1, aromatase (CYP19) (Homo sapiens, UniProt P11511).
T1 sequence (P11511 1-503): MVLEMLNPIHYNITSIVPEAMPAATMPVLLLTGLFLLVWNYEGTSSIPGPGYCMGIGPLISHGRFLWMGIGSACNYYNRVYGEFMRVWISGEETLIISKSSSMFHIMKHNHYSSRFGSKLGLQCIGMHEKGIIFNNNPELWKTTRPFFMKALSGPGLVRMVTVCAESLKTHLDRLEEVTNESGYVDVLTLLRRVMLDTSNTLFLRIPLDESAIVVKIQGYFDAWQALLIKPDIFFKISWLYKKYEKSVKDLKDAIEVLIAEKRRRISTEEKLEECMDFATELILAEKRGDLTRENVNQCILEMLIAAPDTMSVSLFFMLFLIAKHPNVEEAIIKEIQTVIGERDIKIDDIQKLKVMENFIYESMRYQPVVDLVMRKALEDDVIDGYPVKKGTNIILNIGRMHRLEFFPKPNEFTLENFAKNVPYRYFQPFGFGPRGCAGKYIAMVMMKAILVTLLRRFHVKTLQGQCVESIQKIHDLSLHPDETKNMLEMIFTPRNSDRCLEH
Nature of the data set: Inhibition of aromatase (AIA). The class given is biochemical. Particulars: at 12.5 µM; I = %inhibition lower than 50%; read-out: Aromatase inhibitory activity %Inhibition. How it is done: Estrogens are the critical risk factor for breast cancer initiation and progression and the aromatase enzyme involves in the final step conversion of androgens to estrogens[21],[22]. […] In this study, the synthesized psoralen derivatives were also tested for aromatase inhibitory activity (AIA) which is considered to be one of chemopreventive mechanisms for hormone dependent breast cancer.
Inhibition of the aromatase was performed using the method designed by Stresser et al.[39].
Consider `COc1ccc(C(=O)Nc2c3ccoc3c(OC)c3oc(=O)ccc23)cc1` [3e, 4-Methoxy-N-(9-methoxy-7-oxo-7H-furo[3,2-g]chromen-4-yl)benzamide], for which the inhibition at 12.5 µM was 15%.
For the compound `COc1c2occc2c(NC(=O)c2cccs2)c2ccc(=O)oc12` [3h, N-(9-Methoxy-7-oxo-7H-furo[3,2-g]chromen-4-yl) thiophene-2-carboxamide], the inhibition at 12.5 µM was 8%.
`COc1c2occc2c(NC(=O)c2ccccc2)c2ccc(=O)oc12` [3a, N-(9-Methoxy-7-oxo-7H-furo[3,2-g]chromen-4-yl)benzamide]: the inhibition at 12.5 µM turned out to be 3%.
Still for that read-out and setting: the result for `COc1c2occc2c(NC(=O)c2ccc(F)cc2)c2ccc(=O)oc12` [3b, 4-Fluoro-N-(9-methoxy-7-oxo-7H-furo[3,2-g]chromen-4-yl)benzamide] reads 6%.

Another data set has as its system SK-BR-3. Nature of the data set: Dark and light-activated (UVA) cytotoxicity, MTT. The class given is cell-based, human. Particulars: Homo sapiens, SK-BR-3, light or radiation study; irradiation with UVA (2.0 J cm^−2); HER2+ breast cancer. The method, then:
(§3) The selected compounds were screened for their IC50 values against both HER2+ breast cancer (SK-BR-3), and HER2− breast cancer (MDA-MB-231) in both dark and light-activated conditions (Table 2). Additionally, a negative control study was also performed with SK-BR-3 and MDA-MB-231 cells in the absence of tested compound under UVA irradiation (See Fig S7., Supporting Information).
(§4) SK-BR-3 and MDA-MB-231 cells were seeded into 96-well cell culture plates at 5 × 10^3 cells/well and incubated for 24 h at 37 °C under 5% CO2. After that, the cells were treated with 50 μM of psoralen derivatives in DMEM with 10% FBS and the cells were continued incubation for another 4 h. After incubation, the cells were washed with PBS (3 times) and then irradiated by a 365 nm lamp with the light intensity of 2.0 J cm^−2 for 12.5 min before re-incubation for another 72 h. After incubation, the cell was treated with methylthiazolyldiphenyl-tetrazolium bromide (MTT reagent 200 μL, 0.5 mg mL^−1, Sigma-Aldrich) for 2 h. After reagent removal, DMSO was added to dissolve the formazan product and the cell viabilities were determined through UV–Vis absorption of the resulting formazan at wavelength 560 nm using a microplate reader (BMG Labtech/SPECTROstar Nano). The cell morphology images were captured by using a light microscope (Microscope Nikon, inverted digital) at 20X magnification prior to treating with MTT reagent.
Compound `COc1ccc(C(=O)Nc2c3ccoc3c(OC)c3oc(=O)ccc23)cc1` [3e, 4-Methoxy-N-(9-methoxy-7-oxo-7H-furo[3,2-g]chromen-4-yl)benzamide] gave a concentration for half-maximal inhibition (IC50) of 66.7 ± 2.75 µM.

For a further data set, the system named is MDA-MB-231. Nature of the data set: Dark and light-activated (UVA) cytotoxicity, MTT. The class given is cell-based. The following applies: Homo sapiens, MDA-MB-231, light or radiation study; irradiation with UVA (2.0 J cm^−2); HER2− breast cancer. How it is done:
as §3, §4
Regarding `COc1ccc(C(=O)Nc2c3ccoc3c(OC)c3oc(=O)ccc23)cc1` [3e, 4-Methoxy-N-(9-methoxy-7-oxo-7H-furo[3,2-g]chromen-4-yl)benzamide], the half-maximal inhibitory concentration (IC50) is more than 100 µM.

System in another data set: not listed separately
Description: Scavenging of diphenyl-picryl-hydrazyl radicals (DPPH). The following applies: screening concentration 250 µM. The source says: 1. Chemoprevention activity
(The DPPH test is a chemical assay of radical scavenging.)
Take `COc1ccc(C(=O)Nc2c3ccoc3c(OC)c3oc(=O)ccc23)cc1` [3e, 4-Methoxy-N-(9-methoxy-7-oxo-7H-furo[3,2-g]chromen-4-yl)benzamide]: the “DPPH %Inh” value was 4%.
Turning to `COc1c2occc2c(NC(=O)c2cccs2)c2ccc(=O)oc12` [3h, N-(9-Methoxy-7-oxo-7H-furo[3,2-g]chromen-4-yl) thiophene-2-carboxamide], the “DPPH %Inh” value worked out at 6%.
Regarding `COc1c2occc2c(NC(=O)c2ccccc2)c2ccc(=O)oc12` [3a, N-(9-Methoxy-7-oxo-7H-furo[3,2-g]chromen-4-yl)benzamide], the “DPPH %Inh” value is reported as 6%.
Still for that read-out and setting: the result for `COc1c2occc2c(NC(=O)c2ccc(F)cc2)c2ccc(=O)oc12` [3b, 4-Fluoro-N-(9-methoxy-7-oxo-7H-furo[3,2-g]chromen-4-yl)benzamide] reads 3%.

In a further data set the test system is differentiated HL-60 cells. Nature of the data set: Inhibition of TPA-induced superoxide anion radical generation (HL-60 Antioxidant). Particulars: Homo sapiens, HL-60; screening concentration 100 µM; read-out: HL-60 Antiox. %Inh. It counts as cell-based, human. An excerpt: Inhibition of 12-O-tetradecanoylphorbol-13-acetate (TPA)-induced superoxide anion radical generation in differentiated HL-60 cells (HL-60 Antioxidant) TPA-induced superoxide anion radical formation was detected in differentiated HL-60 cells by photometric determination of cytochrome c reduction as previously described by Gerhäuser et al., 2003.ii Superoxide dismutase (SOD;15U) was a positive control. […]
For the compound `COc1ccc(C(=O)Nc2c3ccoc3c(OC)c3oc(=O)ccc23)cc1` [3e, 4-Methoxy-N-(9-methoxy-7-oxo-7H-furo[3,2-g]chromen-4-yl)benzamide], the inhibition at 100 µM came to 0%.
For the compound `COc1c2occc2c(NC(=O)c2cccs2)c2ccc(=O)oc12` [3h, N-(9-Methoxy-7-oxo-7H-furo[3,2-g]chromen-4-yl) thiophene-2-carboxamide], the inhibition at 100 µM was 24%.
In the case of `COc1c2occc2c(NC(=O)c2ccccc2)c2ccc(=O)oc12` [3a, N-(9-Methoxy-7-oxo-7H-furo[3,2-g]chromen-4-yl)benzamide], the inhibition at 100 µM was 3%.
With `COc1c2occc2c(NC(=O)c2ccc(F)cc2)c2ccc(=O)oc12` [3b, 4-Fluoro-N-(9-methoxy-7-oxo-7H-furo[3,2-g]chromen-4-yl)benzamide], the inhibition at 100 µM came to 1%.

System in another data set: not given
Test: not given
Settings: not given
Consider `COc1ccc(C(=O)Nc2c3ccoc3c(OC)c3oc(=O)ccc23)cc1` [3e, 4-Methoxy-N-(9-methoxy-7-oxo-7H-furo[3,2-g]chromen-4-yl)benzamide], for which the melting point fell in the range of 211 to 212 °C.
Same read-out and setting: the result for `COc1c2occc2c(NC(=O)c2cccs2)c2ccc(=O)oc12` [3h, N-(9-Methoxy-7-oxo-7H-furo[3,2-g]chromen-4-yl) thiophene-2-carboxamide] reads 213 to 214 °C; that for `COc1c2occc2c(NC(=O)c2ccccc2)c2ccc(=O)oc12` [3a, N-(9-Methoxy-7-oxo-7H-furo[3,2-g]chromen-4-yl)benzamide], 220 to 222 °C; that for `COc1c2occc2c(NC(=O)c2ccc(F)cc2)c2ccc(=O)oc12` [3b, 4-Fluoro-N-(9-methoxy-7-oxo-7H-furo[3,2-g]chromen-4-yl)benzamide], 276 to 277 °C.

In a further data set the test system is SK-BR-3. Description: Dark and light-activated (UVA) cytotoxicity, MTT. Particulars: Homo sapiens, dark, HER2+ breast cancer. It counts as cell-based.
In turn, `COc1ccc(C(=O)Nc2c3ccoc3c(OC)c3oc(=O)ccc23)cc1` [3e, 4-Methoxy-N-(9-methoxy-7-oxo-7H-furo[3,2-g]chromen-4-yl)benzamide] registered an IC50 of more than 100 µM.

The test system of another data set is MDA-MB-231. Nature of the data set: Dark and light-activated (UVA) cytotoxicity, MTT. The class given is cell-based. Particulars: Homo sapiens, dark, HER2− breast cancer.
Compound `COc1ccc(C(=O)Nc2c3ccoc3c(OC)c3oc(=O)ccc23)cc1` [3e, 4-Methoxy-N-(9-methoxy-7-oxo-7H-furo[3,2-g]chromen-4-yl)benzamide] came in with an IC50 of more than 100 µM.
